Data from patent publication US5321024A, “Antiviral pharmaceutical composition for treating lymphocytes” (Godecke Aktiengesellschaft, priority 1991, dated 1994).

Key:
[1] = tested on: HIV viruses (cell line C8166); assay: in vitro anti-HIV protection assay in cell line C8166; type: cell-based
Excerpt: (§1) This is usually substantially more difficult to protect so, for example, in the case of the use of 3-azide-3'-deoxythymidine (AZT), a 100-fold higher dosage is needed than in the use of the compound of the present invention.
(§2) The above assay is described in the Journal of the National Cancer Institute, Vol. 81, No. 8, Apr. 19, 1989.

[2] = tested on: HIV viruses (CEM-IW cell line); assay: in vitro anti-HIV assay in CEM-IW cell line; type: cell-based; conditions: Human immunodeficiency virus 1
Excerpt: as §1, §2

HIV viruses = assay: CPE cell line assay against p24 antigen; type: cell-based; conditions: Human immunodeficiency virus 1, in vitro
Excerpt: as §1, §2

reverse transcriptase = reverse transcriptase (Human immunodeficiency virus type 1 group M subtype B, UniProt P04585); assay: inhibition of reverse transcriptase; type: biochemical; conditions: in vitro
Excerpt: as §1

[3] = tested on: HIV viruses (T-lymphocytes); assay: protection of T-lymphocytes against the cytopathic effect of HIV viruses; type: cell-based

Row | SMILES | dosage needed relative to the compound of the present invention ([1]; cell line C8166, higher dosage needed) [fold] | EC50 [2] [nM] | EC50 (HIV viruses) [nM] | IC50 (reverse transcriptase) [nM] | values found for the cell line C8166 compared with the other cell line values ([1]; cell line C8166, usually substantially more difficult to protect) | protection of T-lymphocytes against the cytopathic effect of HIV viruses [3]
1 | Cc1cn([C@H]2C[C@H](N=[N+]=[N-])[C@@H](CO)O2)c(=O)[nH]c1=O [AZT, 3-azide-3'-deoxythymidine, reference compound] | 100 | – | – | – | – | –
2 | O=S1(c2ccccc2)=NC(=S)Nc2ccccc21 (stereo not drawn) [Example 1, 3,4-Dihydro-1-phenyl-3-thio-1,2,4-benzothiadiazine 1-oxide] | – | ~2000 | ~1650 | 2000 | comparable values | complete protection
